# Results from the supplement of paper PMC11061612.
# Assays:
# Test in all cases: combination Emax (second highest fraction inhibited in the dose matrix, 72 h); higher = more inhibition; extreme values may be limits of the assay
# [1] = system: C2BBe1 (Colorectal Carcinoma)
# In short: (§1)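 Bliss excess equals the observed combination effect minus the expected value EA + EB − EA·EB, where EA and EB are the effects of each agent alone. Combination Emax is the second-highest inhibition within the matrix. Inhibition was scaled from CellTiter-Glo 2.0 luminescence, with 0 set by vehicle wells and 1 by blank wells, after 72 hours of two-drug dosing of cells plated in 1536-well plates.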
# C32 (Melanoma) = system: C32 (Melanoma)
# In short: as §1
# [2] = system: NCI-H2009 (Lung Adenocarcinoma)
# In short: as §1
# [3] = system: MRK-nu-1 (Breast Carcinoma)
# In short: as §1
# [4] = system: NTERA-2-cl-D1 (Other Solid Carcinomas)
# In short: as §1
# [5] = system: OCI-M1 (Acute Myeloid Leukemia)
# In short: as §1
# [6] = system: MDA-MB-175-VII (Breast Carcinoma)
# In short: as §1
# [7] = system: JJN-3 (Plasma Cell Myeloma)
# In short: as §1
# [8] = system: IGROV-1 (Ovarian Carcinoma)
# In short: as §1
# DK-MG (Glioblastoma) = system: DK-MG (Glioblastoma)
# In short: as §1
# [9] = system: NCI-H2023 (Non-Small Cell Lung Carcinoma)
# In short: as §1
# [10] = system: RS4-11 (B-Lymphoblastic Leukemia)
# In short: as §1
# [11] = system: NCI-H1975 (Lung Adenocarcinoma)
# In short: as §1
# [12] = system: NCI-H1048 (Small Cell Lung Carcinoma)
# In short: as §1
# [13] = system: TK (B-Cell Non-Hodgkin's Lymphoma)
# In short: as §1
# [14] = system: HT-3 (Cervical Carcinoma)
# In short: as §1
# [15] = system: ATN-1 (T-Lymphoblastic Leukemia)
# In short: as §1
# GCIY (Gastric Carcinoma) = system: GCIY (Gastric Carcinoma)
# In short: as §1
# [16] = system: L-363 (Plasma Cell Myeloma)
# In short: as §1
# [17] = system: JURL-MK1 (Chronic Myelogenous Leukemia)
# In short: as §1
SMILES,combination Emax [1],combination Emax (C32 (Melanoma)),combination Emax [2],combination Emax [3],combination Emax [4],combination Emax [5],combination Emax [6],combination Emax [7],combination Emax [8],combination Emax (DK-MG (Glioblastoma)),combination Emax [9],combination Emax [10],combination Emax [11],combination Emax [12],combination Emax [13],combination Emax [14],combination Emax [15],combination Emax (GCIY (Gastric Carcinoma)),combination Emax [16],combination Emax [17]
"CC1(C)CCC(CN2CCN(c3ccc(C(=O)NS(=O)(=O)c4ccc(NCC5CCOCC5)c([N+](=O)[O-])c4)c(Oc4cnc5[nH]ccc5c4)c3)CC2)=C(c2ccc(Cl)cc2)C1 [Venetoclax] + CCN(CCO)CCCOc1ccc2c(Nc3cc(CC(=O)Nc4cccc(F)c4)[nH]n3)ncnc2c1 [AZD2811] (first compound max 1 µM, 7x7, partner max 1 µM)",0.214,0.385,0.236,0.612,0.831,0.276,0.23,0.806,0.255,0.283,0.378,1,0.216,0.73,1,0.178,0.866,0.386,0.865,0.445
"NC1(C(=O)N[C@@H](CCO)c2ccc(Cl)cc2)CCN(c2ncnc3[nH]ccc23)CC1 [Capivasertib] + CC(C)n1c(=O)n(C)c2cnc3cc(F)c(-c4ccc(OCCCN5CCCCC5)nc4)cc3c21 [AZD1390] (first compound max 10 µM, 7x7, partner max 0.3 µM)",0.32,0.353,0.372,0.576,0.312,0.287,0.635,0.28,0.799,0.454,0.409,0.32,0.604,0.439,0.162,0.11,0.778,0.397,0.465,0.366
"CN(CCO)CC[C@H](CSc1ccccc1)Nc1ccc(S(=O)(=O)NC(=O)c2ccc(N3CCC([C@@H](O)c4ccccc4-c4ccc(Cl)cc4)CC3)cc2)cc1S(=O)(=O)C(F)(F)F [AZD4320] + C=CCn1c(=O)c2cnc(Nc3ccc(N4CCN(C)CC4)cc3)nc2n1-c1cccc(C(C)(C)O)n1 [AZD1775] (first compound max 1 µM, partner max 1 µM)",0.346,0.639,0.764,0.174,0.775,1,0.32,0.662,0.894,0.283,0.623,1,0.562,1,1,0.264,0.982,0.708,1,1
"CN(CCO)CC[C@H](CSc1ccccc1)Nc1ccc(S(=O)(=O)NC(=O)c2ccc(N3CCC([C@@H](O)c4ccccc4-c4ccc(Cl)cc4)CC3)cc2)cc1S(=O)(=O)C(F)(F)F [AZD4320] + CN(C)CCCOc1ccc(-c2ccc3ncc4c(c3c2)n(C2CCOCC2)c(=O)n4C)cn1 [AZD0156] (first compound max 1 µM, 7x7, partner max 1 µM)",0.188,0.284,0.0839,0.164,0.416,0.988,0.224,0.445,0.611,0.192,0.22,1,0.256,0.622,0.998,0.143,0.656,0.554,0.263,0.825
"COc1cccc(OCCCN)c1-c1cc(Nc2cnc(C#N)cn2)n[nH]1 [Prexasertib] + C[C@@H]1COCCN1C2=NC(=NC(=C2)C3(CC3)[S@](=N)(=O)C)C4=C5C=CNC5=NC=C4 [AZD6738] (first compound max 1 µM, 7x7, partner max 10 µM)",0.556,0.735,0.522,0.746,0.596,0.956,0.398,0.971,0.754,0.216,0.81,1,0.426,0.694,0.901,0.679,1,0.911,1,1
"NC1(C(=O)N[C@@H](CCO)c2ccc(Cl)cc2)CCN(c2ncnc3[nH]ccc23)CC1 [Capivasertib] + C[C@@H]1COCCN1C2=NC(=NC(=C2)C3(CC3)[S@](=N)(=O)C)C4=C5C=CNC5=NC=C4 [AZD6738] (first compound max 10 µM, 7x7, partner max 10 µM)",0.445,0.631,0.453,0.605,0.477,0.985,0.683,0.603,0.865,0.494,0.655,0.967,0.669,0.667,0.871,0.575,0.965,0.751,0.824,1
"COc1nnc2ccc(N3CCC(c4ccc(OCCN5CCN(C)C(=O)[C@H]5C)cc4)CC3)nn12 [AZD5153] + CC1(C)CCC(CN2CCN(c3ccc(C(=O)NS(=O)(=O)c4ccc(NCC5CCOCC5)c([N+](=O)[O-])c4)c(Oc4cnc5[nH]ccc5c4)c3)CC2)=C(c2ccc(Cl)cc2)C1 [Venetoclax] (first compound max 1 µM, 7x7, partner max 1 µM)",0.378,0.261,0.373,0.468,0.654,1,0.475,0.892,0.669,0.539,0.378,1,0.667,0.492,0.994,0.278,0.516,0.505,0.528,0.873
"C=CCn1c(=O)c2cnc(Nc3ccc(N4CCN(C)CC4)cc3)nc2n1-c1cccc(C(C)(C)O)n1 [AZD1775] + C[C@@H]1COCCN1C2=NC(=NC(=C2)C3(CC3)[S@](=N)(=O)C)C4=C5C=CNC5=NC=C4 [AZD6738] (first compound max 1 µM, partner max 10 µM)",0.486,0.73,0.799,0.802,0.943,0.969,0.405,0.832,0.827,0.42,0.885,0.994,0.477,0.886,0.94,0.832,1,0.947,0.977,1
"CC1(C)CCC(CN2CCN(c3ccc(C(=O)NS(=O)(=O)c4ccc(NCC5CCOCC5)c([N+](=O)[O-])c4)c(Oc4cnc5[nH]ccc5c4)c3)CC2)=C(c2ccc(Cl)cc2)C1 [Venetoclax] + C=CCn1c(=O)c2cnc(Nc3ccc(N4CCN(C)CC4)cc3)nc2n1-c1cccc(C(C)(C)O)n1 [AZD1775] (first compound max 1 µM, partner max 1 µM)",0.39,0.546,0.637,0.294,0.856,0.912,0.444,0.693,0.819,0.452,0.713,1,0.393,0.92,1,0.191,0.977,0.824,1,0.999
"COc1cccc(OCCCN)c1-c1cc(Nc2cnc(C#N)cn2)n[nH]1 [Prexasertib] + O=C(c1cc(Cc2n[nH]c(=O)c3ccccc23)ccc1F)N1CCN(C(=O)C2CC2)CC1 [Olaparib] (first compound max 1 µM, 7x7, partner max 10 µM)",0.414,0.769,0.574,0.674,0.742,0.981,0.376,0.978,0.705,0.224,0.801,1,0.299,0.894,0.891,0.646,1,0.837,1,1
"CC(=O)c1c(C)c2cnc(Nc3ccc(N4CCNCC4)cn3)nc2n(C2CCCC2)c1=O [Palbociclib] + Cn1cnc2c(F)c(Nc3ccc(Br)cc3Cl)c(C(=O)NOCCO)cc21 [Selumetinib] (first compound max 10 µM, 7x7, partner max 10 µM)",0.379,0.959,0.363,0.438,0.249,0.833,0.389,0.168,0.782,0.435,0.209,0.488,0.455,0.0486,0.196,0.138,0.48,0.416,0.301,1
"C=CCn1c(=O)c2cnc(Nc3ccc(N4CCN(C)CC4)cc3)nc2n1-c1cccc(C(C)(C)O)n1 [AZD1775] + O=C(c1cc(Cc2n[nH]c(=O)c3ccccc23)ccc1F)N1CCN(C(=O)C2CC2)CC1 [Olaparib] (first compound max 1 µM, partner max 10 µM)",0.335,0.438,0.752,0.336,0.914,0.869,0.23,0.645,0.769,0.32,0.717,0.952,0.262,0.874,0.898,0.339,1,0.568,0.964,0.994
